From US11168052B2, “Carbamate derivative compounds, processes for preparing them and their uses” (BIO-PHARM SOLUTIONS CO., LTD., priority 2016, dated 2021) come the findings set out here.

Assay [1] has as its system acetic acid-induced writhes in ICR mice. Nature of the assay: Writhing test (acetic acid). Type of assay: in vivo. To be noted: Mus musculus, po. The method, then:
To examine the pain relief effect of the carbamate compounds, a writhing test was conducted, referring to Fischer, L. G. et al. (2008).
ICR mice (male, 24-28g; Orient Bio, Korea) were habituated before test (in test room) for 1 hour. Animals were fasted 2 hr before administration of compounds. Each of compounds was orally administered at the three dose, 10 ul/g, bw (n=3-5/group). All compounds were dissolved in a vehicle of 30% (v/v) PEG 400 or 20% (v/v) Tween 80. The control group was treated the vehicle without compounds.
0.2-2 hour after the administration of compounds, 0.6% acetic acid at the dose of 10 ul/g by bodyweight was injected into the mice Animals were habituated in the cage for 5 min. 5 min after habituation, the number of writhes (abdominal constriction) was counted for 15 min, referring to Korzeniewska-Rybicka, I. et al. (1998) and compared with that of a control.
The relative values compared to the control (% control) were calculated and shown in […]

In assay [2] the test system is BIC-induced clonic seizure in mice. As to the kind of experiment: Chemical induced seizure model (BIC). Type of assay: in vivo, ICR mice. To be noted: Mus musculus, ip. On the procedure:
Male ICR mice (purchased from Orient Bio Inc. Korea) of body weight 19-26 g were used for these studies. The test materials were administered intraperitoneal route in a volume of 10 ul/g weight. Pharmacological effects of all the test materials were evaluated to compared test groups (n=6) with a control group (n=6). Control group was administrated vehicle, only. The peak time was determined by administration test material's random dose for 0.5 and 1 hour. The time that the most protect was defined peak time and ED50 was determined by other dose administration at peak time. BIC was dissolved in 0.9% saline and administered subcutaneously (s.c.) at its CD97 (convulsive dose 97%) the dose of BIC that produced clonic seizures in 97% into a loose fold of skin in the midline of the neck in a volume of 10 ul/g body weight. The animals were then transferred to observation cages and observed continuously for 30 min. Clonic seizure was elicited in approximately 95% of control group. Protection was defined as complete absence of a clonic seizure over the 30-min observation period. The time that the most protect was defined peak time and ED50 was determined by other dose administration at peak time. The effective dose of compound necessary to protect against seizures to 50% of controls (i.e., ED50) was determined by log probit analysis using Excel 2007 (Microsoft).

The test system of a further assay is corneally kindled rats. Nature of the assay: Corneal kindling (CK) rat model. The class given is in vivo, Sprague-Dawley rats. Conditions: po. The text has this:
Male Sprague-Dawley rats (purchased from Orient Bio Inc. Korea) of body weight 85-100 g were used for these studies. The MES test using the electroshock seizure apparatus designed by Rodent Shocker Type221 (Hugo Sachs Elektronik, Germany). The kindled rat models were electrically stimulated (8 mA, 60 Hz, 2 s, corneal electrodes) twice daily for 21 days until stage 5 seizure scored by Racine's scale (Racine, 1972) were evoked. The kindled rats were fasted and adapted to test condition, for at least 1 hour before the administration of test material. The drugs were administered orally (p.o.) in a volume of 4 μl/g body weight. The corneally kindled rat model test is a model for generalized […] seizures or bipolar disorder and identifies the compound which prevents seizure or bipolar disorder spread. The shock level was set at 8 mA, 60 Hz and the duration was set at 2 s. A drop of 0.9% saline was placed in each eye, the electrodes were placed over the eyes, and the shock was administered immediately. Pharmacological effects of the test materials were evaluated to compare the test groups (n=6) with a control group (n=6). Control group was administrated vehicle, only. The peak time was determined by administration test material's random dose for 0.5, 1, 2, 4 hour. The time that the most protect was defined peak time and ED50 was determined by other dose administration at peak time. […]

Assay [3] has as its system Lithium-pilocarpine induced seizure in rats. Nature of the assay: Lithium pilocarpine model (inter). Type of assay: in vivo, Sprague-Dawley rats. Conditions: Rattus norvegicus. The method, then: Male Sprague-Dawley rats (purchased from Orient Bio Inc. Korea) of body weight 175 grams were used for these studies and 3 rats per cage were housed for 4-5 days. On the day prior to SE, rats received 127 mg/kg lithium chloride (Sigma, St. Louis, Mo., U.S.A.) intraperitoneally (i.p.). Approximately 18-20 h following this treatment, rats were given an i.p. injection of the concentration capable of inducing 97% intermittent convulsions pilocarpine(Sigma, 30-43 mg/kg). An i.p. injection of 2 mg/kg methyl-scopolamine (Sigma) was administered 30 min prior to pilocarpine to block the effects of the muscarinic agonist on peripheral cholinergic receptors. Test drugs were dissolved in 20% tween80 (Sigma).
The drugs were administered intraperitoneally (i.p.) in a volume of 2 μl/g body weight. Pharmacological effects of all of the test materials were evaluated to compare test groups (n=6) with a control group (n=6). Control group was administered vehicle only. The efficacy was measured 0.5, 1, 2, or 4 hours after the administration of the test material. The time point that the most animals were protected was defined as peak time and the ED50 was determined at peak time. The animals were then transferred to observation cages and observed continuously for 90 min Seizure was elicited in approximately 95% of the control group. […]

SMILES strings stand for the structures.

As usually defined, the ED50 is the dose at which the effect has come halfway, by size or by number of responders. Low values mean an effect at a small dose, high ones a need for a large dose. The compound `NC(=O)O[C@@H]1c2c(Cl)cccc2CC[C@@H]1O` [Example 19, (1R, 2S)-8-chloro-2-hydroxy-1,2,3,4-tetrahydronaphthalen-1-yl carbamate] returned an ED50 in assay [1] of 30 mg/kg.
On to `NC(=O)O[C@@H]1CCc2cccc(Cl)c2[C@@H]1O` [Example 1, (1S, 2R)-8-chloro-1-hydroxy-1,2,3,4-tetrahydronaphthalen-2-yl carbamate], for which the ED50 in assay [2] was found to be 28.9 mg/kg; in assay [1] it was 46.1 mg/kg; with corneally kindled rats it was 7.5 mg/kg; in assay [3], 24.5 mg/kg.
